From US11365188B2, “JAK inhibitors” (priority 2018, dated 2022) come the findings set out here.

Chain of JAK1 (P23458 whole entry, species assumed): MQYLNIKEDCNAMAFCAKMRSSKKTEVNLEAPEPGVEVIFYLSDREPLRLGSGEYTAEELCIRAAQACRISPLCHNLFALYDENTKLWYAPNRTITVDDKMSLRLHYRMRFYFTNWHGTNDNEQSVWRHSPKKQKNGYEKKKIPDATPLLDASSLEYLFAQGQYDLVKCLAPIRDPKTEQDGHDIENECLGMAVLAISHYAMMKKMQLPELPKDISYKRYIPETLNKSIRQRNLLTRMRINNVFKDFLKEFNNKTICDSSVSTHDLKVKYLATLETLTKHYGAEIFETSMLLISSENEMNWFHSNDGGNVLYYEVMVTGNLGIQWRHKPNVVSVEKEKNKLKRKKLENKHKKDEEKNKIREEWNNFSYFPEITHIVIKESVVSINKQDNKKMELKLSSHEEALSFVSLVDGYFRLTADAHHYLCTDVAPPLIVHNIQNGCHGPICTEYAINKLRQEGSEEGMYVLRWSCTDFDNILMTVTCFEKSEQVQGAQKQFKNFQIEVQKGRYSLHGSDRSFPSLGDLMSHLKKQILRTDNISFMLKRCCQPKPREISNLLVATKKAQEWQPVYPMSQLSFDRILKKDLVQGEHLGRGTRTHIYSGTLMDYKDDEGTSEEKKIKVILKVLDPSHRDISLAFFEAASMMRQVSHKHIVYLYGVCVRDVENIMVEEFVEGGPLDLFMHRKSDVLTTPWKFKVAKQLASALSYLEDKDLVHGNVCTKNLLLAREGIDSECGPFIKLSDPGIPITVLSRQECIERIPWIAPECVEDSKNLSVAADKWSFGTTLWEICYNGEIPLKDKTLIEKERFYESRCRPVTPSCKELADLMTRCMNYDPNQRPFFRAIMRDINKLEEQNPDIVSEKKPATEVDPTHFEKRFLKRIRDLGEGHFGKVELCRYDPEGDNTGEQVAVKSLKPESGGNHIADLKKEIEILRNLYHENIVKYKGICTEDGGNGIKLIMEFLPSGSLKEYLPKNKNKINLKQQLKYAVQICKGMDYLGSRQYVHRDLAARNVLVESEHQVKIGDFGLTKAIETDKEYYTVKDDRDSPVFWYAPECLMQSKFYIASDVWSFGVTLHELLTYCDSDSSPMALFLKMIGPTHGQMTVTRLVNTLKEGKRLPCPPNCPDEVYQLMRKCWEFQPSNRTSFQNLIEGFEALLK

The target of the assay is JAK1 (Homo sapiens, UniProt P23458). Briefly: JAK Kinase Assay (JAK1, Caliper EZ Reader, fluoresceinated peptide). It is filed as biochemical. The note with it: ATP 76.5 μM; JAK1 10 nM; 120 minutes at room temperature; read-out: JAK1 inhibition. Here is the method:
JAK Kinase Assay 384-well plates in the left foot butoxy measured progress. The final assay volume was 25 μL, 250 nL 100× compounds, 10 μL enzyme mix and 15 μL substrate mix (fluoresceinated peptide and ATP) in assay buffer (20 mM HEPES (pH 7.5), 10 mM MgCl2, […], 0.5 mM EGTA and 2 mM DTT) prepared as test compound. By mixing the JAK1 with substrates and test compounds to start the reaction. There action mixture was incubated for 120 minutes at room temperature, then added 30 μL stop buffer for each sample to terminate the reaction with 50 mM EDTA. After termination of the kinase reaction, the proportion of phosphorylated product was determined as a fraction of total peptide substrate using Caliper EZ Reader II. Inhibition data were calculated by comparison with 100% of the reaction mixture without enzyme inhibition and vehicle-only reaction mixture billion % inhibition compared. The final concentration of reagents in the assays is: ATP, 76.5 μM; JAK1 fluorescent peptide (5-FAM-EEPLYWSFPAKKK-CONH2), 3 μM; JAK1, 10 nM, and DMSO, 1%. Dose response curve were generated to determine the concentration required for IC50 of JAK activity.
As for `CCN(CC)S(=O)(=O)N1CCC2(CCC(N(C)c3ncnc4[nH]ccc34)CC2)CC1` [Compound 111, N,N-diethyl-9-(methyl(7H-pyrrolo[2,3-d]pyrimidin-4-yl)amino)-3-azaspiro[5.5]undecane-3-sulfonamide], the IC50 was at least 10000 nM.

`CN(c1ncnc2[nH]ccc12)C1CCC2(CC1)CCN(C(=O)c1ccc(S(N)(=O)=O)cc1)CC2` [Compound 112, 4-(9-(methyl(7H-pyrrolo[2,3-d]pyrimidin-4-yl)amino)-3-azaspiro[5.5]undecane-3-carbonyl)benzenesulfonamide]: the IC50 is 10 to 100 nM.

Take `CN(c1ncnc2[nH]ccc12)C1CCC2(CC1)CCN(C(=O)CCS(N)(=O)=O)CC2` [Compound 113, 3-(9-(methyl(7H-pyrrolo[2,3-d]pyrimidin-4-yl)amino)-3-azaspiro[5.5]undecan-3-yl)-3-oxopropane-1-sulfonamide]: the IC50 lay within 1000 to 10000 nM.

As to `CN(c1ncnc2[nH]ccc12)C1CCC2(CC1)CCN(C(=O)COc1cc(F)cc(C#N)c1)CC2` [Compound 114, 3-fluoro-5-(2-(9-(methyl(7H-pyrrolo[2,3-d]pyrimidin-4-yl)amino)-3-azaspiro[5.5]undecan-3-yl)-2-oxoethoxy)benzonitrile], the IC50 was at most 10 nM.

As for `CN(c1ncnc2[nH]ccc12)C1CCC2(CC1)CCN(C(=O)COc1ccc(C#N)cc1)CC2` [Compound 115, 4-(2-(9-(methyl(7H-pyrrolo[2,3-d]pyrimidin-4-yl)amino)-3-azaspiro[5.5]undecan-3-yl)-2-oxoethoxy)benzonitrile], the IC50 is at most 10 nM.

Turning to `CN(c1ncnc2[nH]ccc12)C1CCC2(CC1)CCN(C(=O)COc1cccc(C#N)c1)CC2` [Compound 116, 3-(2-(9-(methyl(7H-pyrrolo[2,3-d]pyrimidin-4-yl)amino)-3-azaspiro[5.5]undecan-3-yl)-2-oxoethoxy)benzonitrile], the IC50 lay within 10 to 100 nM.

In the case of `CN(c1ncnc2[nH]ccc12)C1CCC2(CC1)CCN(C(=O)COc1ccc(C#N)c(F)c1)CC2` [Compound 117, 2-fluoro-4-(2-(9-(methyl(7H-pyrrolo[2,3-d]pyrimidin-4-yl)amino)-3-azaspiro[5.5]undecan-3-yl)-2-oxoethoxy)benzonitrile], the IC50 is 10 to 100 nM.

Regarding `CN(c1ncnc2[nH]ccc12)C1CCC2(CC1)CCN(C(=O)COc1ccc(C#N)c(F)c1F)CC2` [Compound 118, 2,3-difluoro-4-(2-(9-(methyl(7H-pyrrolo[2,3-d]pyrimidin-4-yl)amino)-3-azaspiro[5.5]undecan-3-yl)-2-oxoethoxy)benzonitrile], the IC50 was in the range of 10 to 100 nM.

As to `COc1ccc(NC(=O)N2CCC3(CCC(N(C)c4ncnc5[nH]ccc45)CC3)CC2)cc1` [Compound 119, N-(4-methoxyphenyl)-9-(methyl(7H-pyrrolo[2,3-d]pyrimidin-4-yl)amino)-3-azaspiro[5.5]undecane-3-carboxamide], the IC50 was in the range of 10 to 100 nM.

On to `COc1cccc(NC(=O)N2CCC3(CCC(N(C)c4ncnc5[nH]ccc45)CC3)CC2)c1` [Compound 120, N-(3-methoxyphenyl)-9-(methyl(7H-pyrrolo[2,3-d]pyrimidin-4-yl)amino)-3-azaspiro[5.5]undecane-3-carboxamide], for which the IC50 is at most 10 nM.

`CN(c1ncnc2[nH]ccc12)C1CCC2(CC1)CCN(C(=O)Nc1ccc(C#N)cc1)CC2` [Compound 121, N-(4-cyanophenyl)-9-(methyl(7H-pyrrolo[2,3-d]pyrimidin-4-yl)amino)-3-azaspiro[5.5]undecane-3-carboxamide]: the IC50 lay in the range of 10 to 100 nM.

As to `CN(c1ncnc2[nH]ccc12)C1CCC2(CC1)CCN(C(=O)Nc1cccc(C#N)c1)CC2` [Compound 122, N-(3-cyanophenyl)-9-(methyl(7H-pyrrolo[2,3-d]pyrimidin-4-yl)amino)-3-azaspiro[5.5]undecane-3-carboxamide], the IC50 is at most 10 nM.

Consider `CN(c1ncnc2[nH]ccc12)C1CCC2(CC1)CCN(C(=O)Nc1cccc(C#N)n1)CC2` [Compound 123, N-(6-cyanopyridin-2-yl)-9-(methyl(7H-pyrrolo[2,3-d]pyrimidin-4-yl)amino)-3-azaspiro[5.5]undecane-3-carboxamide], for which the IC50 is at most 10 nM.

Turning to `COc1cccc(NC(=O)N2CCC3(CCC(N(C)c4ncnc5[nH]ccc45)CC3)CC2)n1` [Compound 124, N-(6-methoxpyridin-2-yl)-9-(methyl(7H-pyrrolo[2,3-d]pyrimidin-4-yl)amino)-3-azaspiro[5.5]undecane-3-carboxamide], the IC50 was 10 to 100 nM.

Take `CN(c1ncnc2[nH]ccc12)C1CCC2(CC1)CCN(C(=O)Nc1ccc(C#N)cn1)CC2` [Compound 125, N-(5-cyanopyridin-2-yl)-9-(methyl(7H-pyrrolo[2,3-d]pyrimidin-4-yl)amino)-3-azaspiro[5.5]undecane-3-carboxamide]: the IC50 was 1000 to 10000 nM.

Take `Cc1cnc(NC(=O)N2CCC3(CCC(N(C)c4ncnc5[nH]ccc45)CC3)CC2)s1` [Compound 126, 9-(methyl(7H-pyrrolo[2,3-d]pyrimidin-4-yl)amino)-N-(5-methylthiazol-2-yl)-3-azaspiro[5.5]undecane-3-carboxamide]: the IC50 lay in the range of 100 to 1000 nM.

For `CN(c1ncnc2[nH]ccc12)C1CCC2(CC1)CCN(C(=O)Nc1ccn(C)n1)CC2` [Compound 127, 9-(methyl(7H-pyrrolo[2,3-d]pyrimidin-4-yl)amino)-N-(1-methyl-1H-pyrazol-3-yl)-3-azaspiro[5.5]undecane-3-carboxamide], the IC50 was in the range of 100 to 1000 nM.

Consider `Cc1cnc(NC(=O)N2CCC3(CCC(N(C)c4ncnc5[nH]ccc45)CC3)CC2)cn1` [Compound 128, 9-(methyl(7H-pyrrolo[2,3-d]pyrimidin-4-yl)amino)-N-(5-methylpyrazin-2-yl)-3-azaspiro[5.5]undecane-3-carboxamide], for which the IC50 lay in the range of 1000 to 10000 nM.

`COc1cnc(NC(=O)N2CCC3(CCC(N(C)c4ncnc5[nH]ccc45)CC3)CC2)cn1` [Compound 129, N-(5-methoxypyrazin-2-yl)-9-(methyl(7H-pyrrolo[2,3-d]pyrimidin-4-yl)amino)-3-azaspiro[5.5]undecane-3-carboxamide]: the IC50 fell in the range of 10 to 100 nM.

As to `COc1ccc(NC(=O)N2CCC3(CCC(N(C)c4ncnc5[nH]ccc45)CC3)CC2)nc1` [Compound 130, N-(5-methoxypyridin-2-yl)-9-(methyl(7H-pyrrolo[2,3-d]pyrimidin-4-yl)amino)-3-azaspiro[5.5]undecane-3-carboxamide], the IC50 lay within 10 to 100 nM.

For `CN(c1ncnc2[nH]ccc12)C1CCC2(CC1)CCN(C(=O)Nc1ncc(F)s1)CC2` [Compound 131, N-(5-fluorothiazol-2-yl)-9-(methyl(7H-pyrrolo[2,3-d]pyrimidin-4-yl)amino)-3-azaspiro[5.5]undecane-3-carboxamide], the IC50 was in the range of 10 to 100 nM.

On to `CN(c1ncnc2[nH]ccc12)C1CCC2(CC1)CCN(C(=O)Nc1ncc(Cl)s1)CC2` [Compound 132, N-(5-chlorothiazol-2-yl)-9-(methyl(7H-pyrrolo[2,3-d]pyrimidin-4-yl)amino)-3-azaspiro[5.5]undecane-3-carboxamide], for which the IC50 was 100 to 1000 nM.

As for `CN(c1ncnc2[nH]ccc12)C1CCC2(CC1)CCN(C(=O)Nc1ncc(C#N)s1)CC2` [Compound 133, N-(5-cyanothiazol-2-yl)-9-(methyl(7H-pyrrolo[2,3-d]pyrimidin-4-yl)amino)-3-azaspiro[5.5]undecane-3-carboxamide], the IC50 is at most 10 nM.

In the case of `CN(c1ncnc2[nH]ccc12)C1CCC2(CC1)CCN(C(=O)Nc1nccs1)CC2` [Compound 134, 9-(methyl(7H-pyrrolo[2,3-d]pyrimidin-4-yl)amino)-N-(thiazol-2-yl)-3-azaspiro[5.5]undecane-3-carboxamide], the IC50 is at most 10 nM.
